Non-standard residues stand in square brackets, D forms with d. Residues, ends and D or L forms follow the SMILES beside them. Groups on a side chain read outwards from the residue. *: point of attachment. DOTA = O=C(O)CN1CCN(CC(=O)O)CCN(CC(=O)*)CCN(CC(=O)O)CC1; dTyr(3-I) = N[C@H](Cc1ccc(O)c(I)c1)C(=O)O; 2Nal = N[C@@H](Cc1ccc2ccccc2c1)C(=O)O; dNMeOrn = CN[C@H](CCCN)C(=O)O; 4Amb = NCc1ccc(C(=O)O)cc1; 4Abz = Nc1ccc(C(=O)O)cc1; dDap = NC[C@@H](N)C(=O)O
Key:
[1] = system: Jurkat tumor-bearing CB-17 SCID mice; assay: Biodistribution in Jurkat tumor-bearing CB-17 SCID mice; assay type: in vivo; set-up: tissue to tissue ratio at 1 h / tissue to tissue ratio / tissue to tissue ratio at 48 h: reference not given here; conditions: mouse, in vivo
Summary of the method: (§1)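 Radioligand (125I, 177Lu, 99mTc, 18F or 68Ga label; roughly 0.5-20 MBq, 0.02-0.20 nmol) was injected intravenously via tail vein. Hosts were CB17-SCID mice with subcutaneous Jurkat tumors of 5-8 mm, 4-10 weeks post-inoculation. Dissected organs were weighed and counted in a γ-counter.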

[2] = as above; assay type: in vivo; set-up: tissue to tissue ratio at 1 h / tissue to tissue ratio / tissue to tissue ratio at 48 h: reference not given here; conditions: CB-17 SCID, mouse, in vivo, iv, total radioactivity
Summary of the method: as §1

[3] = system: CXCR4-expressing Chem_1 cells; assay: Determination of internalization, dual tracer with 125I-Fc-131; assay type: cell-based; conditions: for Cell-bound [%] / Internalized [%]: of total cellular activity
Summary of the method: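 Receptor blockade used AMD3100 (1 mM stock) versus medium-treated wells, triplicate per time point, in Chem_1 cells cultured at 37 °C in DMEM-F12/10% FBS. Activity of supernatant, surface-bound and internalized (1 M NaOH) fractions measured by γ-counter, corrected for non-specific uptake and normalised to standard ligand.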

CXCR4 = CXCR4 (Homo sapiens, UniProt P61073); assay: Determination of IC50: competition with 125I-Fc-131 on CXCR4-positive Jurkat cells; assay type: binding; set-up: CXCR4-positive Jurkat T lymphocyte cells were grown in Gibco's RPMI 1640 GlutaMAX medium; endogenous in cells; host or cells: Jurkat T lymphocyte cells (whole cells in suspension, 400.000 per tube); conditions: unlabeled or cold (natGa/natLu) compound vs 125I-Fc-131, Jurkat cells; read-out: IC50;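 further: test compound at 10^−5 to 10^−11 M competed for 2 h at 8 °C with the radioligand on 400,000 cells per well, bound versus free activity measured by γ-counting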
CXCR4, sequence (P61073 whole entry): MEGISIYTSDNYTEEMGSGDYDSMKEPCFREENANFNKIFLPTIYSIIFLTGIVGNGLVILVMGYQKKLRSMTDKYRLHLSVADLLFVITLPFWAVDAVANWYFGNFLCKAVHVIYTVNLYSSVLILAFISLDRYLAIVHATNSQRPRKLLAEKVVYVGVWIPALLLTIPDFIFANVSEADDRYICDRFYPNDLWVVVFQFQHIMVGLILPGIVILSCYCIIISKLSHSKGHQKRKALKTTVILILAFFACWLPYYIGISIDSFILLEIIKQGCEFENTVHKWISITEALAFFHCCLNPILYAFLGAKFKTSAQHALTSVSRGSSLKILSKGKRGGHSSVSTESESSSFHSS

[4] = Octanol/PBS partition coefficient (logD7.4); assay type: physicochemical; conditions: n-octanol/PBS pH 7.4, radiolabeled compound
Procedure: The tubes were vortexed at maximum speed for 3 min to ensure equilibrium before centrifugation at 15.000×g for 5 min on a Biofuge 15 from Heraeus Holding GmbH (Osterode, Germany). An aliquot of 100 μL of each fraction was measured in the γ-counter and the log D7.4 calculated as follows: […]

Question: For `C[C@@H](NC(=O)[C@@H](CCCNC(=N)N)NC(=O)[C@@H](CN)NC(=O)CN1CCN(CC(=O)O)CCN(CC(=O)O)CCN(CC(=O)O)CC1)C(=O)Nc1ccc(C(=O)NCCC[C@@H]2C(=O)N[C@@H](CCCNC(=N)N)C(=O)N[C@@H](Cc3ccc4ccccc4c3)C(=O)NCC(=O)N[C@H](Cc3ccc(O)c(I)c3)C(=O)N2C)cc1` [CXCR4-DOTA-4 [Lu]] (cyclo([dTyr(3-I)][dNMeOrn]([4Abz-dA-dR-dDap-DOTA])R[2Nal]G)), which “Calculated tumor retention 6 h compared to the 1 h-value” [1] is on record?
Answer: 126%

Question: What about the “Calculated tumor retention 48 h compared to the 1 h-value” [1] of the same compound?
Answer: 117%

Question: What about the tissue to tissue ratio [2] of the same compound?
Answer: 156

Question: What about the tissue to tissue ratio at 1 h [2] of the same compound?
Answer: 3.6

Question: And the tissue to tissue ratio at 48 h [2]?
Answer: 362

Question: And the tissue uptake at 1 h ([2]; Tumor activity 1 h p.i.)?
Answer: 6.19 %ID/g

Question: And the tissue uptake at 6 h ([2]; Tumor activity 6 h p.i.)?
Answer: 7.78 %ID/g

Question: And the tissue uptake at 48 h ([2]; Tumor activity 48 h p.i.)?
Answer: 7.23 %ID/g

Question: And the tissue uptake at 1 h ([2]; female, % iD/g Blood)?
Answer: 1.72 %ID/g

Question: What about the tissue uptake at 6 h ([2]; female, % iD/g Blood) of the same compound?
Answer: 0.05 %ID/g

Question: What about the tissue uptake at 48 h ([2]; female, % iD/g Blood) of the same compound?
Answer: 0.02 %ID/g

Question: And the tissue uptake at 1 h ([2]; female, % iD/g Bone)?
Answer: 1.07 %ID/g

Question: And the tissue uptake at 6 h ([2]; female, % iD/g Bone)?
Answer: 0.57 %ID/g

Question: What about the tissue uptake at 48 h ([2]; female, % iD/g Bone) of the same compound?
Answer: 1.47 %ID/g

Question: And the tissue uptake at 1 h ([2]; female, % iD/g Heart)?
Answer: 1.13 %ID/g

Question: And the tissue uptake at 6 h ([2]; female, % iD/g Heart)?
Answer: 0.22 %ID/g

Question: And the tissue uptake at 48 h ([2]; female, % iD/g Heart)?
Answer: 0.21 %ID/g

Question: What about the tissue uptake at 1 h ([2]; female, % iD/g Intestine) of the same compound?
Answer: 0.87 %ID/g

Question: And the tissue uptake at 6 h ([2]; female, % iD/g Intestine)?
Answer: 0.82 %ID/g

Question: And the tissue uptake at 48 h ([2]; female, % iD/g Intestine)?
Answer: 0.28 %ID/g

Question: And the tissue uptake at 1 h ([2]; female, % iD/g Kidney)?
Answer: 14.4 %ID/g

Question: What about the tissue uptake at 6 h ([2]; female, % iD/g Kidney) of the same compound?
Answer: 11.3 %ID/g

Question: What about the tissue uptake at 48 h ([2]; female, % iD/g Kidney) of the same compound?
Answer: 5.31 %ID/g

Question: And the tissue uptake at 1 h ([2]; female, % iD/g Liver)?
Answer: 19.2 %ID/g

Question: What about the tissue uptake at 6 h ([2]; female, % iD/g Liver) of the same compound?
Answer: 20.5 %ID/g

Question: And the tissue uptake at 48 h ([2]; female, % iD/g Liver)?
Answer: 21.7 %ID/g

Question: What about the tissue uptake at 1 h ([2]; female, % iD/g Lung) of the same compound?
Answer: 3.69 %ID/g

Question: What about the tissue uptake at 6 h ([2]; female, % iD/g Lung) of the same compound?
Answer: 0.6 %ID/g

Question: What about the tissue uptake at 48 h ([2]; female, % iD/g Lung) of the same compound?
Answer: 0.47 %ID/g

Question: And the tissue uptake at 1 h ([2]; female, % iD/g Muscle)?
Answer: 0.3 %ID/g

Question: And the tissue uptake at 6 h ([2]; female, % iD/g Muscle)?
Answer: 0.07 %ID/g

Question: And the tissue uptake at 48 h ([2]; female, % iD/g Muscle)?
Answer: 0.05 %ID/g

Question: And the tissue uptake at 1 h ([2]; female, % iD/g Pancreas)?
Answer: 0.52 %ID/g

Question: And the tissue uptake at 6 h ([2]; female, % iD/g Pancreas)?
Answer: 0.16 %ID/g

Question: What about the tissue uptake at 48 h ([2]; female, % iD/g Pancreas) of the same compound?
Answer: 0.24 %ID/g

Question: What about the tissue uptake at 1 h ([2]; female, % iD/g Spleen) of the same compound?
Answer: 4.57 %ID/g

Question: What about the tissue uptake at 6 h ([2]; female, % iD/g Spleen) of the same compound?
Answer: 2.68 %ID/g

Question: What about the tissue uptake at 48 h ([2]; female, % iD/g Spleen) of the same compound?
Answer: 3.63 %ID/g

Question: And the tissue uptake at 1 h ([2]; female, % iD/g Stomach)?
Answer: 1.35 %ID/g

Question: What about the tissue uptake at 6 h ([2]; female, % iD/g Stomach) of the same compound?
Answer: 0.41 %ID/g

Question: And the tissue uptake at 48 h ([2]; female, % iD/g Stomach)?
Answer: 0.23 %ID/g

Question: What about the tissue uptake at 1 h ([2]; female, % iD/g Tumor) of the same compound?
Answer: 6.19 %ID/g

Question: What about the tissue uptake at 6 h ([2]; female, % iD/g Tumor) of the same compound?
Answer: 7.78 %ID/g

Question: What about the tissue uptake at 48 h ([2]; female, % iD/g Tumor) of the same compound?
Answer: 7.23 %ID/g

Question: Which results are given for `C[C@@H](NC(=O)[C@@H](CCCNC(=N)N)NC(=O)[C@@H](CN)NC(=O)CN1CCN(CC(=O)O)CCN(CC(=O)O)CCN(CC(=O)O)CC1)C(=O)NCc1ccc(C(=O)NCCC[C@@H]2C(=O)N[C@@H](CCCNC(=N)N)C(=O)N[C@@H](Cc3ccc4ccccc4c3)C(=O)NCC(=O)N[C@H](Cc3ccc(O)c(I)c3)C(=O)N2C)cc1` [CXCR4-DOTA-2 [Lu]] (cyclo([dTyr(3-I)][dNMeOrn]([4Amb-dA-dR-dDap-DOTA])R[2Nal]G))?
Answer: Internalized in relation to 125I-Fc-131 [%] ([3]; 15 min): 247 ± 26.2%; Cell-bound [%] ([3]; 15 min): 8.31 ± 1.20%; Internalized [%] ([3]; 15 min): 11.2 ± 1.93%; Internalized in relation to 125I-Fc-131 [%] ([3]; 30 min): 347 ± 36.1%; Cell-bound [%] ([3]; 30 min): 13.5 ± 1.38%; Internalized [%] ([3]; 30 min): 17.8 ± 2.02%; Internalized in relation to 125I-Fc-131 [%] ([3]; 60 min): 368 ± 36.9%; Cell-bound [%] ([3]; 60 min): 16.4 ± 1.31%; Internalized [%] ([3]; 60 min): 21.8 ± 1.10%; Internalized in relation to 125I-Fc-131 [%] ([3]; 120 min): 456 ± 76.3%; Internalization [% Fc-131] 2 h ([3]; 2 h, 177Lu-labeled): 456 % Fc-131; Cell-bound [%] ([3]; 120 min): 22.2 ± 2.68%; Internalized [%] ([3]; 120 min): 27.3 ± 3.62%; tissue uptake at 1 h ([2]; female, % iD/g Blood): 1.67 %ID/g; tissue uptake at 1 h ([2]; female, % iD/g Bone): 0.9 %ID/g; tissue uptake at 1 h ([2]; female, % iD/g Heart): 1.04 %ID/g; tissue uptake at 1 h ([2]; female, % iD/g Intestine): 0.9 %ID/g; tissue uptake at 1 h ([2]; female, % iD/g Kidney): 15.7 %ID/g; tissue uptake at 1 h ([2]; female, % iD/g Liver): 17.7 %ID/g; tissue uptake at 1 h ([2]; female, % iD/g Lung): 2.94 %ID/g; tissue uptake at 1 h ([2]; female, % iD/g Muscle): 0.3 %ID/g; tissue uptake at 1 h ([2]; female, % iD/g Pancreas): 0.53 %ID/g; tissue uptake at 1 h ([2]; female, % iD/g Spleen): 3.62 %ID/g; tissue uptake at 1 h ([2]; female, % iD/g Stomach): 1.41 %ID/g; tissue uptake at 1 h ([2]; female, % iD/g Tumor): 5.27 %ID/g; IC50 (CXCR4): 6.47 ± 1.75 nM; logD7.4 [4]: −2.20 ± 0.06 (8)

From patent US20250288704A1, “CXCR4-LIGANDS FOR DIAGNOSTIC AND THERAPEUTIC USE AND PRECURSORS THEREOF” (priority 2021, published 2025)
